ChEMBL document CHEMBL5370582, “Heterolactone and Heterolactams A-M, Verticillane Diterpenoids with Anti-Inflammatory and Hepatoprotective Activities from the Soft Coral Heteroxenia ghardaqensis” (J Nat Prod, 2023)
The source made the active and inactive calls. No cut-off for these calls is given here.

Species on record: Danio rerio
Assay: Hepatoprotective activity against isoniazid/alcohol-induced liver injury in transgenic Zebrafish larvae at 50 uM incubated for 72 hrs by fluorescence microscopy
Type: functional, organism-based
Settings: not given
`CC(C)CCN1C(=O)[C@@]2(C)CC[C@H]3CC[C@H](C)CC(=O)C[C@H](C)/C=C\1[C@]2(O)C3(C)C` was tested, and the Activity was “Active”.
In the case of `C[S+](CC[C@H](N)C(=O)[O-])C[C@H]1O[C@@H](n2cnc3c(N)ncnc32)[C@H](O)[C@@H]1O` (stereo partly drawn), the Activity is reported as “Active”.
For `C[C@H]1CC[C@@H]2CCC3=C(C2(C)C)[C@@](O)(C[C@@H](C)CC(=O)C1)NC3=O`, the Activity was “Active”.
In the case of `C[C@H]1CC[C@@H]2CCC3=C([C@@H](C[C@@H](C)CC(=O)C1)N(CCO)C3=O)C2(C)C`, the Activity is reported as “Active”.

Species on record: Danio rerio
Assay: Anti-inflammatory activity against CuSO4-induced inflammatory response in transgenic Zebrafish larvae assessed as reduction in number of macrophages at 20 uM pretreated for 2 hrs followed by CuSO4-stimulation and measured after 1 hr by fluorescence microscopy
Type: functional, organism-based
Settings: time 3.0 hrs
`C[C@H]1CC[C@@H]2CCC3=C([C@@H](C[C@@H](C)CC(=O)C1)N(CCc1ccccc1)C3=O)C2(C)C` was tested, and the Activity was “Active”.
For `COc1ccc2c(c1)c(CC(=O)O)c(C)n2C(=O)c1ccc(Cl)cc1`, the Activity was “Active”.
`C[C@H]1CC[C@@H]2CCC3=C(C2(C)C)[C@@](O)(C[C@@H](C)CC(=O)C1)N(CCc1ccccc1)C3=O` was tested, and the Activity was “Active”.
In the case of `C[C@H]1CC[C@@H]2CCC3=C([C@@H](C[C@@H](C)CC(=O)C1)N(CCO)C3=O)C2(C)C`, the Activity is reported as “Active”.
